US4749687A, “Renin inhibitors containing statine or derivatives thereof” (Pfizer Inc., priority 1985, dated 1988)
Counter-ions that a name gives are not always drawn. Where a SMILES comes first, the peptide text is derived from it.

target: T1, renin (Homo sapiens, UniProt P00797); experiment: Inhibition of the angiotensinogen-cleaving activity of renin in vitro (plasma, angiotensin I radioimmunoassay); format: biochemical; conditions: pooled blood plasma from healthy laboratory personnel, pH 7.4, incubated three hours at 37° C., angiotensin I by radioimmunoassay; read-out: IC50 (inhibitor concentration required to produce a fifty percent inhibition of the angiotensinogen-cleaving activity of renin)
T1 construct: Blood plasma was obtained from healthy laboratory personnel, pooled and stored frozen until required; from tissue; host or cells: pooled human blood plasma (supernatant after centrifugation)
T1 sequence (P00797 67-406): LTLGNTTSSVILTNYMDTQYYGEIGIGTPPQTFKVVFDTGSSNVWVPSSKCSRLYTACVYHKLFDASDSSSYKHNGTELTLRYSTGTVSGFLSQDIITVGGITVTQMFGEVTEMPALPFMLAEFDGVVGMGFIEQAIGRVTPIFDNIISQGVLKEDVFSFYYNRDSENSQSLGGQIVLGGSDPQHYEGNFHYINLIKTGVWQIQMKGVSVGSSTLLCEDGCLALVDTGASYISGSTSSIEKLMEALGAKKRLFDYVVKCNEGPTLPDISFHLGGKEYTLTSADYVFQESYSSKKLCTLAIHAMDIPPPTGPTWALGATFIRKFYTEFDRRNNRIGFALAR
Procedure: Blood plasma was obtained from healthy laboratory personnel, pooled and stored frozen until required. Before use, a quantity of this plasma was defrosted and centrifuged, and the supernatant mixed with protease inhibitors and buffered to pH 7.4. Renin inhibitors were added at different levels to different aliquots of the plasma supernatant, and the resulting mixtures (310 lambda) incubated for three hours at 37° C. along with renin inhibitor-free control mixtures. After incubation, the mixtures were quenched in ice water and each assayed for angiotensin I using angiotensin I antibody. The production of angiotensin I in the presence of a renin inhibitor was compared to that produced in the absence of the inhibitor, and a percentage inhibition was calculated. Using data obtained from duplicate incubations at each of several different inhibitor concentrations, the inhibitor concentration in the incubation mixture required to produce a fifty percent inhibition of the angiotensinogen-cleaving activity of renin, i.e. the IC50 of the inhibitor, was calculated for various different inhibitors.
The angiotensin I in the quenched incubation mixtures was assayed by means of a radioimmunoassay, using components of a renin radioimmunoassay kit supplied by Becton Dickinson and Co. (Orangeburg, N.Y.). This radioimmunoassay was based upon the one developed by Haber et al., J. Clin. Endocrinol., 29, pp. 1349-1355 (1969).

| Compound | IC50 |
| --- | --- |
| CC(C)(C)OC(=O)N1CCC[C@H]1C(=O)N[C@@H](Cc1ccccc1)C(=O)N[C@@H](Cc1c[nH]cn1)C(=O)N[C@@H](CC1CCCCC1)[C@@H](O)CC(=O)N[C@@H](CCCCN)C(=O)N[C@@H](Cc1ccccc1)C(=O)O [Example 10, [N-(t-butyloxycarbonyl)-Pro]-Phe-His-CyclostatineLys-Phe] (HELM PEPTIDE1{[CC(C)(C)OC(=O)[*:2]].P.F.H.[O=C(C[C@H](O)[C@H](CC1CCCCC1)N[*:1])[*:2]].K.F}$$$$V2.0) | < 4 µM |
| CC[C@H](C)[C@@H](CN[C@@H](Cc1ccccc1)C(=O)O)NC(=O)C[C@H](O)[C@H](CC1CCCCC1)NC(=O)[C@H](Cc1c[nH]cn1)NC(=O)[C@H](Cc1ccccc1)NC(=O)OC(C)(C)C [Example 11, [N-(t-butyloxycarbonyl)-Phe]-His-Cyclostatine-[Amino(2-secbutyl-ethylene)]-Phe Acetic Acid Salt] | < 4 µM |
| [N-(t-butyloxycarbonyl)-Phe]-His-Aminostatine-Ile-Phe Diacetate [Example 5] | < 4 µM |
| CC(C)(C)OC(=O)N[C@@H](Cc1ccccc1)C(=O)N[C@@H](Cc1c[nH]cn1)C(=O)N[C@@H](CC1CCCCC1)[C@@H](O)CC(=O)N[C@@H](CCCCN)C(=O)N[C@@H](Cc1ccccc1)C(=O)O [Example 9, [N-(t-butyloxycarbonyl)-Phe]-His-Cyclostatine-Lys-Phe] (HELM PEPTIDE1{[CC(C)(C)OC(=O)[*:2]].F.H.[O=C(C[C@H](O)[C@H](CC1CCCCC1)N[*:1])[*:2]].K.F}$$$$V2.0) | < 4 µM |
